Test [1] concerns the target T1, human CD38 (Homo sapiens, UniProt P28907).
T1 sequence (P28907 1-300): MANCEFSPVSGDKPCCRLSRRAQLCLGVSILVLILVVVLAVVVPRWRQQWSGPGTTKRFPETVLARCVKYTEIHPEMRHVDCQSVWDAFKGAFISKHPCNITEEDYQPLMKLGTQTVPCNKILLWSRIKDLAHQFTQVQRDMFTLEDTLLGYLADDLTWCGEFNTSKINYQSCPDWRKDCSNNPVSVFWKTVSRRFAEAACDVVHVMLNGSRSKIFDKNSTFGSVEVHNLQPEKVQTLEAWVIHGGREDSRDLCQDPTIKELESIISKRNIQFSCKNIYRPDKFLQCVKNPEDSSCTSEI
Nature of the test: human recombinant CD38 enzyme assay (hydrolysis of NAD+). It counts as biochemical. Conditions: human recombinant CD38, 0.4 nM enzyme, 62.5 μM NAD+; read-out: hCD38 BioChem IC50. Here is the method: (§1) Compounds described herein were assayed for their ability to inhibit the hydrolysis of NAD+ by the protein CD38. The human and mouse recombinant enzyme assays measure the inhibition of the enzyme activity by compounds using recombinant enzymes and substrates in a buffered cell-free system. The assay conditions closely mimic cellular environments. Dose responses were measured using an assay to detect the hydrolysis of NAD+. All experiments were performed in the 384-well format. […] Enzyme reactions were initiated with the addition of 10 μL of a solution containing NAD+ substrate. Subsequent detection of remaining NAD+ was determined by first converting NAD+ to NADH using alcohol dehydrogenase, then using the resulting NADH to reduce resazurine to the fluorescent product resorufin. […] Following an incubation of 60 min at ambient temperature, 10 μL of 120 mM ethanol+20 U/ml alcohol dehydrogenase+30 mM semicarbazide+0.03 mM CD38 inhibitor in 50 mM HEPES, pH 7.5, 0.2 mg/ml BSA, was added and incubated at ambient temperature for 15 min. Then 10 μl 0.32 mM NaOH was added to stop the ADH reaction (plates incubated at ambient temperature for 15 min), followed by 30 μL of 0.05 mM resazurine+1000 mU/ml Diaphorase in 200 mM Tris-HCl, pH 7.7 for 15 min at ambient temperature. The plates were read for fluorescence (Excitation/Emission=540 nm/590 nm) using an EnVision plate reader. […] Note that, in Table 4, the “Compound No” corresponds to the compound numbers in Table 1.

In test [2] the target is T2, mouse CD38 (Mus musculus, UniProt P56528).
T2 sequence (P56528 1-304): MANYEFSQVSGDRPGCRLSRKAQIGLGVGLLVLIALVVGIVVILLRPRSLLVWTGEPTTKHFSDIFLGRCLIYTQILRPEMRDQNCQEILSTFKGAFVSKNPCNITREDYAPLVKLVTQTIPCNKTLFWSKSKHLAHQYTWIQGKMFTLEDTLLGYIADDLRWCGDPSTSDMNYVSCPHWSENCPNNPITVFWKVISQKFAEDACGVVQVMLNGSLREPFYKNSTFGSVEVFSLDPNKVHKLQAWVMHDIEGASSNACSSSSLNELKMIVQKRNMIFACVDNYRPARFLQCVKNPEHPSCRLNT
Nature of the test: mouse recombinant CD38 enzyme assay (hydrolysis of NAD+). Format: biochemical. Conditions: read-out: mCD38 BioChem IC50. Here is the method: as §1

Take `CO[C@H]1CC[C@H](NC(=O)c2nc(C(F)F)cc(-n3ccnc3)n2)CC1` [Compound 346, 4-(difluoromethyl)-6-(1H-imidazol-1-yl)-N-((1r,4r)-4-methoxycyclohexyl)pyrimidine-2-carboxamide]: the 50% inhibitory concentration (IC50) in test [1] was 0.109 µM; in test [2] it was 0.0301 µM.
As for `Cn1cncc1-c1nc(C(=O)NC2CCC(F)(F)CC2)cc(C2CCC2)n1` [Compound 182, 6-cyclobutyl-N-(4,4-difluorocyclohexyl)-2-(1-methyl-1H-imidazol-5-yl)pyrimidine-4-carboxamide], the half-maximal inhibitory concentration (IC50) in test [1] stood at 0.011 µM; in test [2], 0.002 µM.
In the same order, the values of `COc1cc(-n2ccnc2)nc(C(=O)N[C@H]2CC[C@H](OC)CC2)n1` [Compound 208, 4-(1H-imidazol-1-yl)-6-methoxy-N-((1r,4r)-4-methoxycyclohexyl)pyrimidine-2-carboxamide] are 0.961 µM and 0.531 µM.
For the compound `O=C(N[C@H]1CC[C@H](CO)CC1)c1cc(C2CC2)nc(-c2cncs2)n1` [Compound 141, 6-cyclopropyl-N-((1r,4r)-4-(hydroxymethyl)cyclohexyl)-2-(thiazol-5-yl)pyrimidine-4-carboxamide], the figures for the IC50 in test [1] and in test [2] were 0.761 µM and 0.028 µM, respectively.
In the same order, the values of `O=C(N[C@H]1CC[C@H](CO)CC1)c1ccnc(-c2cncs2)n1` [Compound 140, N-((1r,4r)-4-(hydroxymethyl)cyclohexyl)-2-(thiazol-5-yl)pyrimidine-4-carboxamide] are 0.747 µM and 0.117 µM.
In the same order, the values of `O=C(Nc1ccc(C(F)(F)F)nc1)c1cc(C(F)(F)F)nc(-c2cncs2)n1` [Compound 115, 2-(thiazol-5-yl)-6-(trifluoromethyl)-N-(6-(trifluoromethyl)pyridin-3-yl)pyrimidine-4-carboxamide] are 1.26 µM and 0.494 µM.
On to `Cn1cncc1-c1ccnc(C(=O)N[C@H]2C[C@](O)(c3ccccc3)C2)n1` [Compound 310, N-((1s,3s)-3-hydroxy-3-phenylcyclobutyl)-4-(1-methyl-1H-imidazol-5-yl)pyrimidine-2-carboxamide], for which the IC50 in test [1] was 0.354 µM; in test [2], 0.105 µM.
In the same order, the values of `CO[C@H]1CC[C@H](NC(=O)c2cc(N3CCCC3)cc(-n3ccnc3)n2)CC1` [Compound 180, 6-(1H-imidazol-1-yl)-N-(4-methoxycyclohexyl)-4-(pyrrolidin-1-yl)picolinamide] are 0.078 µM and 0.008 µM.
Regarding `Cn1cncc1-c1ccnc(C(=O)N[C@H]2CC[C@H](OCC(F)(F)F)CC2)n1` [Compound 343, 4-(1-methyl-1H-imidazol-5-yl)-N-((1r,4r)-4-(2,2,2-trifluoroethoxy)cyclohexyl)pyrimidine-2-carboxamide], the IC50 in test [1] was 0.0243 µM; in test [2] it was 0.0136 µM.
In the same order, the values of `COc1ccc(NC(=O)c2cc(C3CCOCC3)nc(-c3cncn3C)n2)cn1` [Compound 355, N-(6-methoxypyridin-3-yl)-2-(1-methyl-1H-imidazol-5-yl)-6-(tetrahydro-2H-pyran-4-yl)pyrimidine-4-carboxamide] are 0.0035 µM and 0.0011 µM.
For `Cn1cncc1-c1nc(C(=O)N[C@H]2CC[C@H](OC(F)(F)F)CC2)cc(C2CCC(F)(F)CC2)n1` [Compound 322, 6-(4,4-difluorocyclohexyl)-2-(1-methyl-1H-imidazol-5-yl)-N-((1r,4r)-4-(trifluoromethoxy)cyclohexyl)pyrimidine-4-carboxamide], the IC50 in test [1] amounted to 0.0418 µM; in test [2] it was 0.0069 µM.
In the same order, the values of `O=C(N[C@H]1CC[C@H](O)C1)c1nccc(-n2ccnc2)n1` [Compound 304, N-((1S,3S)-3-hydroxycyclopentyl)-4-(1H-imidazol-1-yl)pyrimidine-2-carboxamide] are 1.27 µM and 0.244 µM.
In the same order, the values of `COCCO[C@H]1CC[C@H](NC(=O)c2cc(C3CCOCC3)nc(-c3cncn3C)n2)C1` [Compound 353, N-((1S,3S)-3-(2-methoxyethoxy)cyclopentyl)-2-(1-methyl-1H-imidazol-5-yl)-6-(tetrahydro-2H-pyran-4-yl)pyrimidine-4-carboxamide] are 0.0208 µM and 0.0042 µM.
For the compound `Cc1cnc(-c2cncn2C)nc1C(=O)Nc1ccc(C(F)(F)F)nc1` [Compound 326, 5-methyl-2-(1-methyl-1H-imidazol-5-yl)-N-(6-(trifluoromethyl)pyridin-3-yl)pyrimidine-4-carboxamide], the IC50 in test [1] came to 0.0034 µM; in test [2], 0.0014 µM.
In the same order, the values of `Cn1cncc1-c1ncc(F)c(C(=O)N[C@H]2CC[C@H](OC(F)F)CC2)n1` [Compound 341, N-((1r,4r)-4-(difluoromethoxy)cyclohexyl)-5-fluoro-2-(1-methyl-1H-imidazol-5-yl)pyrimidine-4-carboxamide] are 0.0087 µM and 0.0038 µM.
In the same order, the values of `Cn1cncc1-c1nc(C(=O)N[C@H]2CC[C@H](OCC(F)(F)F)CC2)cc(C2CCOCC2)n1` [Compound 337, 2-(1-methyl-1H-imidazol-5-yl)-6-(tetrahydro-2H-pyran-4-yl)-N-((1r,4r)-4-(2,2,2-trifluoroethoxy)cyclohexyl)pyrimidine-4-carboxamide] are 0.0104 µM and 0.0019 µM.
For the compound `CO[C@H]1CC[C@H](NC(=O)c2cc(C3CC3)nc(-n3ccnc3)n2)CC1` [Compound 160, 6-cyclopropyl-2-(1H-imidazol-1-yl)-N-((1r,4r)-4-methoxycyclohexyl)pyrimidine-4-carboxamide], the IC50 in test [1] worked out at 0.027 µM; in test [2] it was 0.004 µM.
For the compound `Cn1cncc1-c1nc(C(=O)N[C@H]2CC[C@H](OC(F)F)CC2)cc(C2CCC(F)(F)CC2)n1` [Compound 324, 6-(4,4-difluorocyclohexyl)-N-((1r,4r)-4-(difluoromethoxy)cyclohexyl)-2-(1-methyl-1H-imidazol-5-yl)pyrimidine-4-carboxamide], the values for the IC50 in test [1] and in test [2] were 0.0159 µM and 0.0021 µM, respectively.
In the same order, the values of `CO[C@H]1CC[C@H](NC(=O)c2cc(C(C)(C)O)nc(-c3cncn3C)n2)CC1` [Compound 178, 6-(2-Hydroxypropan-2-yl)-N-((1r,4r)-4-methoxycyclohexyl)-2-(1-methyl-1H-imidazol-5-yl)pyrimidine-4-carboxamide] are 0.057 µM and 0.013 µM.
As to `O=C(N[C@H]1C[C@@H](c2ccnc(C(F)(F)F)c2)C1)c1nccc(-n2ccnc2)n1` [Compound 271, 4-(1H-imidazol-1-yl)-N-((1s,3s)-3-(2-(trifluoromethyl)pyridin-4-yl)cyclobutyl)pyrimidine-2-carboxamide], the values for the IC50 in test [1] and in test [2] were 2.15 µM and 0.415 µM, respectively.
`Cn1cncc1-c1cc(C(C)(C)C)nc(C(=O)Nc2ccc(C(F)(F)F)nc2)n1` [Compound 190, 4-(tert-butyl)-6-(1-methyl-1H-imidazol-5-yl)-N-(6-(trifluoromethyl)pyridin-3-yl)pyrimidine-2-carboxamide]: the half-maximal inhibitory concentration (IC50) in test [1] was 0.502 µM; in test [2], 0.427 µM.
Turning to `O=C(Nc1ccc(C(F)(F)F)nc1)c1cccc(-n2cnnc2)n1` [Compound 143, 6-(4H-1,2,4-triazol-4-yl)-N-(6-(trifluoromethyl)pyridin-3-yl)picolinamide], the IC50 is 2.04 µM in test [1] and 1.97 µM in test [2].
Take `O=C(Nc1ccc(C(F)F)nc1)c1cc(C2CCC2)nc(-n2ccnc2)n1` [Compound 186, 6-cyclobutyl-N-(6-(difluoromethyl)pyridin-3-yl)-2-(1H-imidazol-1-yl)pyrimidine-4-carboxamide]: the results for the IC50 in test [1] and in test [2] were 0.01 µM and 0.005 µM, respectively.
For the compound `CO[C@H]1CC[C@H](NC(=O)c2nc(-c3cncn3C)cc(C(F)F)n2)CC1` [Compound 350, 4-(difluoromethyl)-N-((1r,4r)-4-methoxycyclohexyl)-6-(1-methyl-1H-imidazol-5-yl)pyrimidine-2-carboxamide], the 50% inhibitory concentration (IC50) is 0.107 µM in test [1] and 0.0113 µM in test [2].

One may read the IC50 as the concentration that inhibits the measured activity by half.

For the origin of these results see patent US20230116972A1, “CD38 MODULATORS AND METHODS OF USE THEREOF” (Cytokinetics, Inc., priority 2021, published 2023).
